From patent US20260021085A1, “CYCLOALKYL CARBOXYLIC ACID DERIVATIVES AS INHIBITORS OF GLYCOGEN SYNTHASE 1 (GYS1) AND METHODS OF USE THEREOF” (Maze Therapeutics, Inc., priority 2022, published 2026)

How the values were obtained:
[1] = target: human GYS2 (Homo sapiens (Human), UniProt P54840); assay: GYS2 coupled enzyme assay (PK/LDH); assay type: biochemical; conditions: recombinant hGYS2/GN1 protein; geometric mean of at least 2 assay runs
Description: (§1) The GYS2 coupled enzyme assay is a kinetic biochemical assay that indirectly quantifies the rate of glycogen synthesis by coupling the conversion of GYS2 substrate UDP-glucose into UDP with downstream enzymatic reactions. UDP is released from UDP-glucose as glucose monomers are linked into the growing glycogen strand by GYS2. The coupled assay then proceeds with pyruvate kinase utilizing UDP and phospho (enol) pyruvate (PEP) to form pyruvate. Lactate dehydrogenase then converts pyruvate and NADH into lactate and NAD+. Oxidation of NADH to NAD+ can be measured continuously with a plate reader by quantifying the decrease in NADH absorbance at 340 nm over time.
Compounds that inhibit the hGYS2 enzyme and, subsequently, the downstream conversion of NADH to NAD+, were tested using assay ready plates (black, clear bottom 384 well plates) in a final DMSO reaction volume of 2.5% DMSO. The Assay Buffer contained 50 mM Tris pH 7.5, 2 mM MgCl2, and 100 mM KCl. Fresh stocks of BSA at a final concentration of 0.02% and TCEP 1 mM were added before splitting buffer into hGYS2 buffer and substrate buffer. To the hGYS2 buffer, rabbit liver glycogen was added at a final concentration of 0.2% glycogen. Glucose-6-Phosphate was added at 2 mM, recombinant hGYS2/GN1 protein was added at 200 nM to the substrate buffer, phosphoenolpyruvate (PEP) was added at 2 mM, UDP-Glucose was added at 2 mM, NADH was added at 0.6 mM, and Pyruvate Kinase/Lactate Dehydrogenase was added at 20 units/mL. The reaction was initiated by mixing hGYS2 buffer and substrate buffer at a 1:1 ratio. Both buffers were plated using a liquid dispensing device with hGYS2 buffer plated first followed by the substrate buffer. Plates were spun briefly to eliminate air bubbles and are immediately read in continuous mode at an absorbance of 340 nm, for 10 time points in one-minute increments, for a total of 10 minutes. The slope from these 10 time points was normalized to the positive and negative control wells.
(§2) Unless otherwise specified, IC50 values are reported as the geometric mean of at least 2 assay runs on separate days. […] Unless otherwise specified, IC50 values are reported as the geometric mean of at least two assay runs on separate days. Each run represents the average of a technical replicate, where each compound was assayed twice in the same plate.

[2] = target: hGYS1 enzyme, glycogen synthesis in HeLa cells (Homo sapiens (Human), UniProt P13807); assay: GYS1 cell based assay (glycogen synthesis in HeLa cells, Glucose-glo); conditions: starved HeLa cells, 24 h incubation; geometric mean of at least 2 assay runs; read-out: Cellular IC50
Description: The GYS1 cell based assay is a bioluminescent assay that quantifies the glucose resulting from glycogen digestion; the quantified glucose is an indirect measure of GYS1 glycogen synthesis. Newly synthesized glycogen is digested using Glucoamylase; the resulting glucose is quantified by using the Glucose-glo assay kit from Promega. Glucose-glo works by coupling glucose oxidation and NADH production with a bioluminescent system that is activated with NADH. Glucose is oxidized by Glucose dehydrogenase and the reaction reduces NAD+ to NADH; NADH activates Reductase which reduces a pro-luciferin Reductase Substrate to luciferin. Luciferin is detected in a luciferase reaction using Ultra-Glo rLuciferase and ATP, and the luminesce produced is proportional to the glucose in the sample. The luminescence is measured as a single point read in a plate reader.
Compounds that inhibit the hGYS1 enzyme and, subsequently, the glycogen synthesis in cells, were tested using assay ready plates (white, clear bottom 384 well plates) in a final DMSO reaction volume of 1% DMSO. Compounds in the assay ready plates were mixed with media with no additives, except for 20 mM glucose prior to cell addition. HeLa cells were starved in media with no additives, except for 1× Glutamax for 24 h. Starved HeLa cells were plated, in a 1:1 ratio to the media in the assay ready plate and incubated for 24 h at 37° C. and 5% CO2. Cells were washed in 1×PBS buffer and lysed in lysis buffer containing 50% 1×PBS and 25% 0.3 N HCl of the final volume in the well or reaction volume; cells were incubated with lysis buffer for 10 minutes and quenched with the remaining 25% of the reaction volume that consisted of 450 mM Tris pH 8.0. Lysates were mixed in a 1:1 ratio with Glucoamylase in 100 mM Sodium Acetate buffer, pH 5.3; the mixture was incubated for 1 h at 37° C. The digested lysate was mixed in a 1:1 ratio with Glucose-glo detection mixture as per vendor recommendations (Luciferase detection buffer, Reductase, Reductase substrate, Glucose dehydrogenase, and NAD) in read-out plates (solid white 384-well plates) and incubated for 1 h at RT. The plates were read using a plate reader with luminescence capabilities. Each compound concentration Relative Luminescence Unit (RLU) was averaged and normalized to the average RLU of the positive and negative controls to obtain a percentage inhibition. The normalized data vs. concentration was plotted; to determine the half-maximal concentration (IC50), the Levenberg-Marquardt algorithm was used to fit a Hill equation to the dose response data.
as §2

[3] = target: human GYS1 (Homo sapiens (Human), UniProt P13807); assay: GYS1 coupled enzyme assay (PK/LDH); assay type: biochemical; conditions: recombinant hGYS1/GN1 protein; geometric mean of at least 2 assay runs
Description: as §1, with “GYS1” for “GYS2”, “GYS1.” for “GYS2.”
Compounds that inhibit the hGYS1 enzyme and, subsequently, the downstream conversion of NADH to NAD+, were tested using assay ready plates (black, clear bottom 384 well plates) in a final DMSO reaction volume of 2.5% DMSO. The Assay Buffer contained 50 mM Tris pH 7.5, 2 mM MgCl2, and 100 mM KCl. Fresh stocks of BSA at a final concentration of 0.02% and TCEP at 1 mM were added before splitting buffer into hGYS1 buffer and substrate buffer. To the hGYS1 buffer, rabbit liver glycogen was added at a final concentration of 0.2% glycogen. Glucose-6-Phosphate was added at 1 mM, recombinant hGYS1/GN1 protein was added at 50 nM to the substrate buffer, phosphoenolpyruvate (PEP) was added at 2 mM, UDP-Glucose was added at 0.8 mM, NADH) was added at 0.6 mM, and Pyruvate Kinase/Lactate Dehydrogenase was added at 20 units/mL. The reaction was initiated by mixing hGYS1 buffer and substrate buffer at a 1:1 ratio. Both buffers were plated using a liquid dispensing device with hGYS1 buffer plated first followed by the substrate buffer. Plates were spun briefly to eliminate air bubbles and are immediately read in continuous mode at an absorbance of 340 nm, for 10 time points in one-minute increments, for a total of 10 minutes. The slope from these 10 time points was normalized to the positive and negative control wells.
Unless otherwise specified, IC50 values are reported as the geometric mean of at least 2 assay runs on separate days. Each run represents the average of a technical replicate, where each compound was assayed twice in the same plate.

human GYS2, sequence (P54840 whole entry): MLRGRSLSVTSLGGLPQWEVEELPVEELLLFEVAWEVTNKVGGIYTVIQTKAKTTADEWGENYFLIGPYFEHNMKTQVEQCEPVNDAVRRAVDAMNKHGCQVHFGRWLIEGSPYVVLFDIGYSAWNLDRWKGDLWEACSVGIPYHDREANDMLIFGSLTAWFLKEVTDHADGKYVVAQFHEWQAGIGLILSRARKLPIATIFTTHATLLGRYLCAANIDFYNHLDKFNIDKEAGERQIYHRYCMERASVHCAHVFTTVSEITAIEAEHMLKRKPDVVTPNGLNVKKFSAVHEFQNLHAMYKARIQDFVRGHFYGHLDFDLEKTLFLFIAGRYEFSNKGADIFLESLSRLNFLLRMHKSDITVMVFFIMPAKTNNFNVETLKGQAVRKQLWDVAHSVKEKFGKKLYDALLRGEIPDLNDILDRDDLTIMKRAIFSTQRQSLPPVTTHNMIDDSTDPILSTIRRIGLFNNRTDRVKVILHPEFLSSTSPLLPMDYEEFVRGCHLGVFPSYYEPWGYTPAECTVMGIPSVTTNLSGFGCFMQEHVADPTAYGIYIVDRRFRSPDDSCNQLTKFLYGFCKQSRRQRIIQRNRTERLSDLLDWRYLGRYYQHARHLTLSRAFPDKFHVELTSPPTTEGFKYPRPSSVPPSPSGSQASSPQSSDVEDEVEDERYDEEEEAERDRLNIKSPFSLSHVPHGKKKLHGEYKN
human GYS2, sequence (P46976 whole entry partner): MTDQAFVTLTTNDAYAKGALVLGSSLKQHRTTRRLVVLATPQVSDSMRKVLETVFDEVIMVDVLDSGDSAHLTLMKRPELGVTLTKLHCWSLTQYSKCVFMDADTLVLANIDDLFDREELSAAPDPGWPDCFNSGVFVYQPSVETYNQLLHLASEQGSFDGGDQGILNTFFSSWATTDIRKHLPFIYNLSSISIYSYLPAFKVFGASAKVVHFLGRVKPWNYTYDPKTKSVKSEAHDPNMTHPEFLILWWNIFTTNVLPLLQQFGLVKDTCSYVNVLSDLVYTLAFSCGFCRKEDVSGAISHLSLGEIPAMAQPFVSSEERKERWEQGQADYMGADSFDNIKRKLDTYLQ
human GYS1, sequence (P13807 whole entry): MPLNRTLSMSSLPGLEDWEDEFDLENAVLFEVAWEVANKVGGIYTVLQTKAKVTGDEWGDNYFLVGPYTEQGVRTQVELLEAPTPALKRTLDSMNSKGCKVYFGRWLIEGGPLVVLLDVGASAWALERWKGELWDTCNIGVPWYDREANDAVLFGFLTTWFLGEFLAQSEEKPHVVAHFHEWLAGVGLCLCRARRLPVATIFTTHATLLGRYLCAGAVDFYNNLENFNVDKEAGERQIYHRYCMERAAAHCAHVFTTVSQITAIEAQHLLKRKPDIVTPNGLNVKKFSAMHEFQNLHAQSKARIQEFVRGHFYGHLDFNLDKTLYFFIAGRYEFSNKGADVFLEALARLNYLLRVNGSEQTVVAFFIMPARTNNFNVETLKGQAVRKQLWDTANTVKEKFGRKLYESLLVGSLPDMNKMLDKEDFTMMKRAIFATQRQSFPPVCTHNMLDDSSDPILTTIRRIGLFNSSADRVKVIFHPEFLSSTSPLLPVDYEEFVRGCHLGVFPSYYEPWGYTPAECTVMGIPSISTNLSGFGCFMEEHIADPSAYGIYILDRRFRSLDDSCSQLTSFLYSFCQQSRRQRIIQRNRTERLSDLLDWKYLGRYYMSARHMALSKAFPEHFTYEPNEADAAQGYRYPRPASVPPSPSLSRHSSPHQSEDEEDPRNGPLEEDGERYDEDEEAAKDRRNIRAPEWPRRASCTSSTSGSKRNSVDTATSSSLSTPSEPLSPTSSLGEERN
human GYS1, sequence (P46976 whole entry partner): as the sequence (P46976 whole entry partner) above
hGYS1 enzyme, glycogen synthesis in HeLa cells, sequence (P13807 whole entry): as the sequence (P13807 whole entry) above

Structure (SMILES)	IC50 [1] [µM]	IC50 [2] [µM]	IC50 [3] [µM]
Cc1ccccc1[C@H](NC(=O)[C@@H]1CCC[C@@H]1C(=O)O)c1ccc(C(C)C)cn1 [Compound 22, (1S,2R)-2-(((S)-(5-isopropylpyridin-2-yl)(o-tolyl)methyl)carbamoyl)cyclopentane-1-carboxylic acid]	66.7	13.9	1.27
CC(C)c1ccc([C@@H](NC(=O)[C@@H]2CCC[C@@H]2C(=O)O)c2ccn[nH]2)cc1F [Compound 27, (1S,2R)-2-(((R)-(3-fluoro-4-isopropylphenyl)(1H-pyrazol-5-yl)methyl)carbamoyl)cyclopentane-1-carboxylic acid]	> 100	46.3	1.48
CC(C)c1ccc([C@@H](NC(=O)[C@@H]2CCC[C@@H]2C(=O)O)c2ccccc2)cc1F [Compound 37, (1S,2R)-2-(((S)-(3-fluoro-4-isopropylphenyl)(phenyl)methyl)carbamoyl)cyclopentane-1-carboxylic acid]	72.8	3.69	0.236

The remaining lines, values ahead:

IC50 [1] [µM]	IC50 [2] [µM]	IC50 [3] [µM]	Structure (SMILES)
8.48	5.36	0.166	Cc1ccccc1[C@H](NC(=O)[C@@H]1CCC[C@@H]1C(=O)O)c1ccc(C(C)C)c(F)c1 [Compound 23, (1S,2R)-2-(((R)-(3-fluoro-4-isopropylphenyl)(o-tolyl)methyl)carbamoyl)cyclopentane-1-carboxylic acid]
15.5	21.6	0.795	Cc1ccccc1[C@H](NC(=O)[C@@H]1CCC[C@@H]1C(=O)O)c1ccc(C2CC2)cc1 [Compound 26, (1S,2R)-2-(((R)-(4-cyclopropylphenyl)(o-tolyl)methyl)carbamoyl)cyclopentane-1-carboxylic acid]
> 100	12.3	1.09	CC(C)c1ccc([C@@H](NC(=O)[C@@H]2CCC[C@@H]2C(=O)O)c2cccc3c2NC(=O)CC3)cc1 [Compound 31, (1S,2R)-2-(((R)-(4-isopropylphenyl)(2-oxo-1,2,3,4-tetrahydroquinolin-8-yl)methyl)carbamoyl)cyclopentane-1-carboxylic acid]
66.4	41.3	3.4	COc1ccccc1[C@H](NC(=O)[C@@H]1CCC[C@@H]1C(=O)O)c1ccc(C(C)C)cc1 [Compound 39, (1S,2R)-2-(((R)-(4-isopropylphenyl)(2-methoxyphenyl)methyl)carbamoyl)cyclopentane-1-carboxylic acid]
98	6.6	0.364	CC(C)c1ccc([C@@H](NC(=O)[C@@H]2CCC[C@@H]2C(=O)O)c2cccs2)cc1 [Compound 45, (1S,2R)-2-(((R)-(4-isopropylphenyl)(thiophen-2-yl)methyl)carbamoyl)cyclopentane-1-carboxylic acid]
